The source of these data is patent publication US10328135B2, “Method of obtaining cytolytic T cells by using mutant tumor epitopes” (priority 2010, dated 2019).

Common to all, as to type: cell-based, human
Assay [1] deals with MART-126-35-specific CTL clone M26-H1. Kind of assay: Saturation mutagenesis APL screen: bead-based cross-presentation by immature dendritic cells, IFN-γ sandwich ELISA. Particulars: 200 μl bacterial cultures, 88 clones, CTL clone M26-H1, FIG. 2.
For another assay, the system named is CD-4+ cells. The experiment in a line: NY-ESO-1 APL cross-presented mini-gene products, IFN-γ ELISA, CD-4+ cells (FIG. 8A). On the procedure:
FIG. 8A. Native and superagonist CTL determinants can be distinguished in bead-based cross presentation assay. Oligonucleotides encoding NY-ESO-1157-170 were cloned into and expressed by pQE40 expression vectors. The mini-gene products were isolated and “fed” to immature dendritic cells as described in the Examples. NY-ESO-1157-170-specific CTL clones were used to detect the presence of the cross-presented mini-gene products (NY-ESO-1157-170). Induced IFN-γ expression was determined by standard sandwich ELISA. Synthetic wild-type peptide was used a positive control. […] Results for CD-4+ cells are shown.
FIG. 8A and FIG. 8B show the ability of several NY-ES0-1APL to stimulate CD-4^| fractions (FIG. 8A) and PBMC (FIG. 8B).
For orientation: An ELISA detects its analyte on a solid surface through an enzyme-linked reagent.

In assay [2] the test system is A375 (HLA-A2+/NY-ESO-1+) melanoma cell line. Kind of assay: In vitro cytotoxicity assay (51Cr release) by polyclonal CTL lines generated with analog peptides; target A375. On the procedure: (§1) Isolated cells were replicated using 30 ng/ml anti-CD3 antibody (OKT3) and IL-2 at 50 U/ml in the presence of irradiated feeder PBMC and LCL for 2 weeks. IL-2 was replenished every 2-3 days.
(§2) Target cells were labeled with 100 μCi of ^51Cr and co-cultured with effector cells for 4 hours at 37° C. plus 5% CO2. […] Released ^51Cr was measured with a gamma scintillation counter and percent specific lysis was determined by using the formula: percent specific release=(experimental release-spontaneous release)/(maximum release-spontaneous release). […]
(§3) “ND” is not done. T2 is a TAP-deficient cell line that expresses peptide-unbound HLA-A2 molecules unless pulsed extracellularly. […] Numbers represent the percentage specific lysis obtained from each target. T375 is a HLA-A2 positive/MART-1 negative cell line.

Assay [3] has as its system T2 cells pulsed with 1 μM of MART-126-35. Kind of assay: In vitro cytotoxicity assay (51Cr release) by polyclonal CTL lines generated with analog peptides; target T2 pulsed with MART-126-35 (M26). On the procedure: as §1, §2, §3
The test system of assay [4] is Mel 526 (HLA-A2+/MART-1+) melanoma cell line. The experiment in a line: In vitro cytotoxicity assay (51Cr release) by polyclonal CTL lines generated with analog peptides; target Mel 526. Particulars: target Mel526. As to the method: as §1, §2, §3
The test system of assay [5] is T2 cells pulsed with NY-ESO-1157-165. The experiment in a line: In vitro cytotoxicity assay (51Cr release) by polyclonal CTL lines generated with analog peptides; target T2 pulsed with NY-ESO-1157-165 (negative control). Particulars: target T2 (pulsed with NYESO-1157-165). On the procedure: as §1, §2, §3
[6] abbreviates: CTL line from Healthy1, E/T 12.5.
The mark [7] stands for this setting: CTL line from MelPt-B, E/T 12.5.
The mark [8] stands for this setting: CTL line from MelPt-C, E/T 12.5.
Setting [9] is: CTL line from MelPt-D, E/T 12.5.
The mark [10] stands for this setting: CTL line from MelPt-F, E/T 12.5.

Regarding “A27M: APL clones of MART-126-35 containing methionine residues at P2; previously described superagonist”, the “IFN-γ expression in P2 library screen of MART-126-35” value in assay [1] was “greater IFN-γ expression than wild type MART-126-35”.

On to “F170W: NY-ESO-1157-170 APL F170W (SLLMWITQCFLPVW)”, for which, in the assay with CD-4+ cells, the “Stimulation of CD-4+ cells” value is “most effective”.

In the case of “I162Q: NY-ESO-1157-170 APL I162Q (SLLMWQTQCFLPVF)”, the “Stimulation of CD-4+ cells” value in the assay on CD-4+ cells is listed as “most effective”.

“MART-126-35L33M (EAAGIGIMTV; UniProt Q16655 26-35, looked up, variant L33M)”: the “Percentage Specific Lysis from polyclonal CTL lines generated with the indicated peptide” value (shortened to “Percentage Specific Lysis”) in assay [2] (setting [6]) amounted to 10%; in assay [2] (CTL line from Healthy1, E/T 25), 13%; in assay [2] (CTL line from Healthy1, E/T 50) it was 13%; in assay [2] (setting [7]), 9%; in assay [2] (CTL line from MelPt-B, E/T 25), 12%; in assay [2] (CTL line from MelPt-B, E/T 50) it was 13%. In addition, the “Percentage Specific Lysis” value in assay [2] (setting [8]) was 5%; in assay [2] (CTL line from MelPt-C, E/T 25) it was 2%; in assay [2] (CTL line from MelPt-C, E/T 50) it was 0%; in assay [2] (setting [9]), 6%; in assay [2] (CTL line from MelPt-D, E/T 25) it was 4%; in assay [2] (CTL line from MelPt-D, E/T 50) it was 2%. Besides, the “Percentage Specific Lysis” value was 5% in assay [2] (setting [10]); 3% in assay [2] (CTL line from MelPt-F, E/T 25); 2% in assay [2] (CTL line from MelPt-F, E/T 50); 38% in assay [3] (setting [6]); 49% in assay [3] (CTL line from Healthy1, E/T 25); 57% in assay [3] (CTL line from Healthy1, E/T 50). Moreover, the “Percentage Specific Lysis” value in assay [3] (setting [7]) is 41%; in assay [3] (CTL line from MelPt-B, E/T 25), 52%; in assay [3] (CTL line from MelPt-B, E/T 50), 63%; in assay [3] (setting [8]) it was 76%; in assay [3] (CTL line from MelPt-C, E/T 25) it was 84%; in assay [3] (CTL line from MelPt-C, E/T 50) it was 91%. The “Percentage Specific Lysis” value in assay [3] (setting [9]) stood at 75%; in assay [3] (CTL line from MelPt-D, E/T 25) it was 84%; in assay [3] (CTL line from MelPt-D, E/T 50) it was 90%; in assay [3] (setting [10]), 65%; in assay [3] (CTL line from MelPt-F, E/T 25), 72%; in assay [3] (CTL line from MelPt-F, E/T 50), 70%. The “Percentage Specific Lysis” value in assay [4] (setting [6]) is recorded as 44%; in assay [4] (CTL line from Healthy1, E/T 25), 57%; in assay [4] (CTL line from Healthy1, E/T 50) it was 65%; in assay [4] (setting [7]), 58%; in assay [4] (CTL line from MelPt-B, E/T 25) it was 70%; in assay [4] (CTL line from MelPt-B, E/T 50) it was 80%. In addition, the “Percentage Specific Lysis” value is on record as 45% in assay [4] (setting [8]); 52% in assay [4] (CTL line from MelPt-C, E/T 25); 58% in assay [4] (CTL line from MelPt-C, E/T 50); 45% in assay [4] (setting [9]); 54% in assay [4] (CTL line from MelPt-D, E/T 25); 57% in assay [4] (CTL line from MelPt-D, E/T 50). Moreover, the “Percentage Specific Lysis” value turned out to be 38% in assay [4] (setting [10]); 42% in assay [4] (CTL line from MelPt-F, E/T 25); 44% in assay [4] (CTL line from MelPt-F, E/T 50); 5% in assay [5] (setting [6]); 6% in assay [5] (CTL line from Healthy1, E/T 25); 2% in assay [5] (CTL line from Healthy1, E/T 50). For the same substance, the “Percentage Specific Lysis” value in assay [5] (setting [7]) came to 4%; in assay [5] (CTL line from MelPt-B, E/T 25), 2%; in assay [5] (CTL line from MelPt-B, E/T 50), 2%; in assay [5] (setting [8]) it was 11%; in assay [5] (CTL line from MelPt-C, E/T 25), 12%; in assay [5] (CTL line from MelPt-C, E/T 50), 9%. Further, the “Percentage Specific Lysis” value in assay [5] (setting [9]) stood at 8%; in assay [5] (CTL line from MelPt-D, E/T 25), 11%; in assay [5] (CTL line from MelPt-D, E/T 50) it was 14%; in assay [5] (setting [10]), 22%; in assay [5] (CTL line from MelPt-F, E/T 25), 21%; in assay [5] (CTL line from MelPt-F, E/T 50), 23%.

Consider “Q164S: NY-ESO-1157-170 APL Q164S (SLLMWITSCFLPVF)”, for which the “Stimulation of CD-4+ cells” value in the assay on CD-4+ cells was “most effective”.
